According to ChEMBL document CHEMBL5724803, “Viability screening in matched tumor and normal assay results for EUbOPEN Chemogenomics Library” (2024):

System: Colon organoid
Assay type: functional, Homo sapiens

SMILES | Cell Viability Ratio
O=C(Nc1cnc(Oc2ccc(F)cc2)nc1)N1CCc2ncccc2[C@@H]1c1ccc(F)cc1 [BAY-899] | 1.086
CC1=C(C#N)C(c2ccc3c(c2)c(NC(=O)c2ccccc2C)nn3C)C(C#N)=C(C)N1 [BAY-974] | 1.012
C[C@H](c1ccnc(Nc2nc3ccc(-c4cc(N(C)C)ncn4)cc3[nH]2)c1)N1CCN(C(=O)CC(F)(F)F)CC1 [BAY-985] | 0.822
Cn1cc(Cl)c2c(Oc3c(F)cc(Nc4cc(Cl)nc(N)n4)cc3F)ccnc21 [BAY-4900] | 1.21
Cc1c(N2CCCC2)nc2ccc(Br)cc2c1C(=O)NC[C@H](CCC(=O)O)c1ccccc1Cl [BAY-6672] | 0.9418
O=C(O)[C@H]1[C@H](Cn2nnc3ccccc3c2=O)CC[C@@H]1C(=O)c1ccc(OCCC2CCOCC2)cc1 [BAY-7598] | 1.026
COc1cc(N[C@@H]2CCCC[C@]2(O)C(F)(F)F)ccc1F [BAY-9897] | 0.9982
CC(=O)N1CCC(c2ccc(C(=O)NC3=NCCN3)cc2C(F)(F)F)CC1 [BI 0054] | 1.041
CN(C)C(=O)Cn1cc(-c2nc(C3(c4ccc(-c5cnc(N)nc5)cc4)CC3)no2)cn1 [BI 0153] | 0.9292
COc1ccc2c(O[C@@H]3C[C@H]4C(=O)N[C@]5(C(=O)O)CC5/C=C\CCCCC[C@H](NC(=O)OC5CCCC5)C(=O)N4C3)cc(-c3csc(NC(=O)C(C)C)n3)nc2c1C (stereo partly specified) [BI 1230] | 0.9938
O=C(N[C@H]1CCCCC/C=C\C2C[C@@]2(C(=O)O)NC(=O)[C@@H]2C[C@@H](Oc3ccncc3)CN2C1=O)OC1CCCC1 (stereo partly specified) [BI 1675] | 1.111
CCOCCn1cc(C(=O)Nc2ccc(-n3nc(-c4cccnc4)cc3C(F)(F)F)cn2)ccc1=O [BI 1935] | 0.9955
C[C@H](NC(=O)c1cnc2n1[C@](C)(Cc1ccc(C#N)cc1)C(=O)N2c1cc(Cl)c(F)c(Cl)c1)C(=O)NC1(c2ccccn2)CC1 [BI 1950] | 0.9219
O=C(Nc1ccc(-n2nc(-c3cccnc3)cc2C(F)(F)F)cn1)c1ccc(-c2ccccc2)c(F)c1 [BI 2049] | 1.116
CCS(=O)(=O)c1cc2cc(C[C@@](O)(CC(C)(C)c3ccc(F)cc3C(N)=O)C(F)(F)F)[nH]c2cn1 [BI 3047] | 1.1136
CCOC(=O)c1cc2cc(-c3cc(C(=O)NCc4ccc(C(=O)O)cc4)nn3C)ccc2[nH]1 [BI 4394] | 0.9253
Cn1nc(C(=O)NCc2ccc(C(=O)O)cc2)cc1-c1ccc2[nH]ccc2c1 [BI 4395] | 1.056
CS(=O)(=O)NCC[C@H](NC(=O)c1cncc2c1cnn2-c1ccc(F)cc1)c1ccnc(S(C)(=O)=O)c1 [BI 9307] | 1.198
C[C@@]1(Cc2ccc(C#N)cc2)C(=O)N(c2cc(Cl)cc(Cl)c2)c2ncc(C(=O)NC3(c4nc(C5CCC5)no4)CC3)n21 [BI 9446] | 1.099
CC(=O)N1CCC(c2ccc(C(=O)NC(=N)N)cc2C(F)(F)F)CC1 [BI 9627] | 0.903
CCC(=O)N[C@H]1CC[C@@H](C(=O)N(C)c2ccc(-c3nc4ccccc4o3)cc2)C1 [BI 99179] | 0.6872
CCC(=O)N[C@@H]1CC[C@H](C(=O)N(C)c2ccc(-c3nc4ccccc4o3)cc2)C1 [BI 99990] | 1.309
CS(=O)(=O)c1cc(C2(NC(=O)c3cncc4c3cnn4-c3ccc(F)cc3)CC2)ccn1 [BI 639667] | 0.9024
CCS(=O)(=O)c1cc2cc(C[C@](O)(CC(C)(C)c3ccc(F)cc3C(N)=O)C(F)(F)F)[nH]c2cn1 [BI 653048] | 0.9178
O=c1nc(-c2ccccn2)sc2ccccc12 [BTZO-1] | 0.8779
O=C1NC(c2ccccn2)Sc2ccccc21 (stereo unspecified) [BTZO-4] | 1.041
